In the NIST ThermoML archive (doi:10.1016/j.jct.2016.03.026):

Experiment: xn = mol fraction of the nth substance listed
Conditions: 293.15 K, Fluid (supercritical or subcritical phases), Vibrating tube method, x1 = 0.97

O=C=O [carbon dioxide] + CO
Conditions	mass density [kg/m3]
8600 kPa	847.4
8625 kPa	847.69
8650 kPa	848.04
8675 kPa	848.37
8700 kPa	848.68
8725 kPa	849.03
8750 kPa	849.37
8775 kPa	849.67
8800 kPa	849.99
8825 kPa	850.29
8850 kPa	850.6
8875 kPa	850.92
8900 kPa	851.22
8925 kPa	851.5
8950 kPa	851.81
8975 kPa	852.08
9000 kPa	852.41
9025 kPa	852.71
9050 kPa	852.98
9075 kPa	853.28
9100 kPa	853.57
9125 kPa	853.85
9150 kPa	854.08
9175 kPa	854.24
9200 kPa	854.32
9225 kPa	854.58
9250 kPa	854.9
9275 kPa	855.22
9300 kPa	855.55
9325 kPa	855.89
9350 kPa	856.22
9375 kPa	856.46
9400 kPa	856.82
9425 kPa	857.09
9450 kPa	857.44
9475 kPa	857.69
9500 kPa	858.02
9525 kPa	858.28
9550 kPa	858.59
9575 kPa	858.84
9600 kPa	859.17
9625 kPa	859.48
9650 kPa	859.74
9675 kPa	860.01
9700 kPa	860.28
9725 kPa	860.54
9750 kPa	860.76
9775 kPa	860.99
9800 kPa	861.24
9825 kPa	861.54
9850 kPa	861.78
9875 kPa	862
9900 kPa	862.27
9925 kPa	862.54
9950 kPa	862.76
9975 kPa	863.01
10000 kPa	863.3
10025 kPa	863.5
10050 kPa	863.76
10075 kPa	864
10100 kPa	864.22
10125 kPa	864.49
10150 kPa	864.74
10175 kPa	865.06
10200 kPa	865.34
10225 kPa	865.63
10250 kPa	865.87
10275 kPa	866.12
10300 kPa	866.45
10325 kPa	866.67
10350 kPa	866.94
10375 kPa	867.18
10400 kPa	867.43
10425 kPa	867.68
10450 kPa	867.99
10475 kPa	868.24
10500 kPa	868.43
10525 kPa	868.74
10550 kPa	868.99
10575 kPa	869.23
10600 kPa	869.48
10625 kPa	869.76
10650 kPa	869.97
10675 kPa	870.3
10700 kPa	870.54
10725 kPa	870.79
10750 kPa	871.03
10775 kPa	871.28
10800 kPa	871.52
10825 kPa	871.77
10850 kPa	872.01
10875 kPa	872.27
10900 kPa	872.51
10925 kPa	872.75
10950 kPa	873
10975 kPa	873.24
11000 kPa	873.49
11025 kPa	873.73
11050 kPa	873.98
11075 kPa	874.22
11100 kPa	874.47
11125 kPa	874.72
11150 kPa	874.96
11175 kPa	875.21
11200 kPa	875.45
11225 kPa	875.7
11250 kPa	875.94
11275 kPa	876.2
11300 kPa	876.43
11325 kPa	876.68
11350 kPa	876.93
11375 kPa	877.16
11400 kPa	877.38
11425 kPa	877.58
11450 kPa	877.85
11475 kPa	878.07
11500 kPa	878.33
11525 kPa	878.56
11550 kPa	878.81
11575 kPa	879
11600 kPa	879.3
11625 kPa	879.46
11650 kPa	879.71
11675 kPa	879.95
11700 kPa	880.2
11725 kPa	880.38
11750 kPa	880.63
11775 kPa	880.86
11800 kPa	881.1
11825 kPa	881.34
11850 kPa	881.54
11875 kPa	881.77
11900 kPa	882
11925 kPa	882.25
11950 kPa	882.46
11975 kPa	882.66
12000 kPa	882.9
12025 kPa	883.12
12050 kPa	883.38
12075 kPa	883.57
12100 kPa	883.79
12125 kPa	884.05
12150 kPa	884.26
12175 kPa	884.46
12200 kPa	884.7
12225 kPa	884.95
12250 kPa	885.18
12275 kPa	885.36
12300 kPa	885.6
12325 kPa	885.85
12350 kPa	886.09
12375 kPa	886.26
12400 kPa	886.49
12425 kPa	886.67
12450 kPa	886.91
12475 kPa	887.16
12500 kPa	887.33
12525 kPa	887.57
12550 kPa	887.8
12575 kPa	887.98
12600 kPa	888.22
12625 kPa	888.41
12650 kPa	888.63
12675 kPa	888.88
12700 kPa	889.11
12725 kPa	889.29
12750 kPa	889.53
12775 kPa	889.77
12800 kPa	889.94
12825 kPa	890.19
12850 kPa	890.37
12875 kPa	890.6
12900 kPa	890.84
12925 kPa	891.01
12950 kPa	891.25
12975 kPa	891.46
13000 kPa	891.66
13025 kPa	891.9
13050 kPa	892.08
13075 kPa	892.32
13100 kPa	892.5
13125 kPa	892.74
13150 kPa	892.96
13175 kPa	893.13
13200 kPa	893.3
13225 kPa	893.53
13250 kPa	893.74
13275 kPa	893.95
13300 kPa	894.19
13325 kPa	894.36
13350 kPa	894.53
13375 kPa	894.75
13400 kPa	894.97
13425 kPa	895.18
13450 kPa	895.34
13475 kPa	895.52
13500 kPa	895.75
13525 kPa	895.96
13550 kPa	896.13
13575 kPa	896.33
13600 kPa	896.51
13625 kPa	896.67
13650 kPa	896.86
13675 kPa	897.09
13700 kPa	897.29
13725 kPa	897.47
13750 kPa	897.68
13775 kPa	897.85
13800 kPa	898.05
13825 kPa	898.26
13850 kPa	898.41
13875 kPa	898.62
13900 kPa	898.8
13925 kPa	898.97
13950 kPa	899.2
13975 kPa	899.38
14000 kPa	899.55
14025 kPa	899.76
14050 kPa	899.94
14075 kPa	900.17
14100 kPa	900.34
14125 kPa	900.51
14150 kPa	900.7
14175 kPa	900.95
14200 kPa	901.13
14225 kPa	901.31
14250 kPa	901.48
14275 kPa	901.66
14300 kPa	901.83
14325 kPa	902.05
14350 kPa	902.18
14375 kPa	902.38
14400 kPa	902.56
14425 kPa	902.77
14450 kPa	902.92
14475 kPa	903.13
14500 kPa	903.28
14525 kPa	903.44
14550 kPa	903.67
14575 kPa	903.82
14600 kPa	904.05
14625 kPa	904.2
14650 kPa	904.42
14675 kPa	904.58
